Values after ≈ are worked out from the molar mass of the structure shown.
How the values were obtained:
Assay type in all cases: cell-based
[1] = system: Streptococcus haemolyticus A 1088; test: MIC, agar serial dilution test; conditions: A1088
Proteus mirabilis L 93 = test: MIC, agar serial dilution test; conditions: L93
[2] = system: Diplococcus pneumoniae L 54; test: MIC, agar serial dilution test; conditions: Streptococcus pneumoniae, L54
[3] = system: Salmonella typhimurium R 172; test: MIC, agar serial dilution test; conditions: Salmonella enterica
Haemophilus suis A 2096 [4] = test: MIC, micro serial dilution test; conditions: A2096, micro serial dilution test (brackets)
[5] = system: Streptococcus faecalis L 80; test: MIC, agar serial dilution test; conditions: Enterococcus faecalis, L80
Proteus rettgeri A 821 = test: MIC, agar serial dilution test; conditions: Providencia rettgeri, A821
[6] = system: Pseudomonas aeruginosa A 1058; test: MIC, agar serial dilution test; conditions: A1058
[7] = system: Klebsiella pneumoniae A 809; test: MIC, agar serial dilution test; conditions: A809
[8] = system: Pasteurella multocida A 723; test: MIC, agar serial dilution test; conditions: A723
[9] = system: Pseudomonas aeruginosa 2396; test: MIC, agar serial dilution test
[10] = system: Pseudomonas aeruginosa H 10; test: MIC, agar serial dilution test; conditions: H10
Proteus mirabilis A 1200 = test: MIC, agar serial dilution test; conditions: A1200
Proteus mirabilis H 3 = test: MIC, agar serial dilution test; conditions: H3
Haemophilus suis A 2096 [11] = test: MIC, agar serial dilution test; conditions: A2096

Structure (SMILES) | MIC [1] [µg/mL] | MIC (Proteus mirabilis L 93) [µg/mL] | MIC [2] [µg/mL] | MIC [3] [µg/mL] | MIC (Haemophilus suis A 2096 [4]) [µg/mL] | MIC [5] [µg/mL] | MIC (Proteus rettgeri A 821) [µg/mL] | MIC [6] [µg/mL] | MIC [7] [µg/mL] | MIC [8] [µg/mL] | MIC [9] [µg/mL] | MIC [10] [µg/mL] | MIC (Proteus mirabilis A 1200) [µg/mL] | MIC (Proteus mirabilis H 3) [µg/mL] | MIC (Haemophilus suis A 2096 [11]) [µg/mL]
CC1(C)S[C@@H]2[C@H](NC(=O)C(C(=O)O)c3ccccc3)C(=O)N2[C@H]1C(=O)O (stereo partly drawn) [carbenicillin] | 0.1 (≈ 0.264 µM) | 0.5 (≈ 1.32 µM) | 0.75 (≈ 1.98 µM) | 6 (≈ 15.9 µM) | 0.2 (≈ 0.529 µM) | 25 (≈ 66.1 µM) | 0.3 (≈ 0.793 µM) | 37 (≈ 97.8 µM) | > 100 | 0.2 (≈ 0.529 µM) |  |  |  |  | 
CC1(C)S[C@@H]2[C@H](NC(=O)[C@H](N)c3ccccc3)C(=O)N2[C@H]1C(=O)O [ampicillin] | 0.75 (≈ 2.15 µM) | 3 (≈ 8.59 µM) | 0.05 (≈ 0.143 µM) | 3 (≈ 8.59 µM) |  |  | 3 (≈ 8.59 µM) | 50 (≈ 143 µM) |  |  | 50 (≈ 143 µM) | > 100 | 3 (≈ 8.59 µM) | 3 (≈ 8.59 µM) | 0.15 (≈ 0.429 µM)
